Laboratory results from PubChem BioAssay (NCI).
Several values for one entry are separate records, joined by “and”; a condition that tells them apart may be missing. Equal entries are not always repeated.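 All cell lines were grown in 96-well plates and treated with compound for 48 hours. GI50 = concentration required for 50% inhibition of growth. Definition used: TGI = concentration required for complete inhibition of growth.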

system: A549 NSCLC; test: NCI-60 cell line screen, 48 h

SMILES	TGI [µM]	GI50 [µM]
COC(=O)C1=C(c2ccc3c(c2)OCO3)O[C@H](c2cc(OC)c(OC)c(OC)c2)[C@H]1COC(C)=O	47.8	–
COc1ccc(OC)c(NC(=O)C(=O)NNC(=O)c2sc(NNC(C)=O)nc2C)c1	> 100	–
CCCCc1c(OC)cc(O)c2c1C(=O)c1[nH]c(C(=O)O)c(O)c(=O)c1C2=O	> 100	–
O=[N+]([O-])c1nccn1CC(O)c1ccc(F)cc1 (stereo not given)	> 100	–
O=C1c2ccccc2C2(Br)C(=O)c3ccccc3C12 (stereo not given)	> 100	–
CCCCOC(=O)C1C(c2ccc(Cl)cc2)NC(c2ccc(Cl)cc2)C(C(=O)OCCCC)S1(=O)=O (stereo not given)	> 100	–
CCOC(=O)Oc1c(OC)cc(C(=O)NC2CCc3cc(OC)c(OC)c(OC)c3-c3ccc(SC)c(=O)cc32)cc1OC (stereo not given)	> 70	0.0288
CC(=O)Nc1ccc(C(=O)NN2C(=O)C(Cl)C2c2ccccc2)cc1 (stereo not given)	> 100	–
COC(=O)c1cc2c(cc1O)[C@@H](NC(C)=O)CCc1cc(OC)c(OC)c(OC)c1-2	> 100	0.0313
CSc1nc2c(nc(C)c(=O)n2C2OCC(OC(C)=O)C(OC(C)=O)C2OC(C)=O)c(=O)[nH]1 (stereo not given)	> 100	–
O=S(O)CCCCSSCC(O)C(O)CSSCCCCS(=O)O (stereo not given)	> 100	–
COc1ccc(C2S/C(=C\c3ccccc3O)C(=O)N2NC(=O)Cc2ccccc2)cc1 (stereo not given)	> 100	–
CC1OC(n2cc(F)c(=O)[nH]c2=O)C=CC1O (stereo not given)	> 100	–
C/C(=C\CCc1ccoc1)CC/C=C(\C)CCCC1=CC(=O)OC1	> 100	4.37
C=C(C=O)[C@@H]1C2OC(=O)C(=C)[C@@H]2CC(O)[C@@]1(C)CC (stereo not given in full)	> 100	–
C=C(CCCCC)CN1CCCC1[C@@](C)(O)CC(=O)OCC (stereo not given in full)	> 100	–
O=C1c2ccccc2C(=O)C1(Cl)C1(S(=O)(=O)O)c2ccccc2-c2ccccc21	> 100	–

system: DU-145 prostate; test: NCI-60 cell line screen, 48 h

SMILES	TGI	GI50
O=C(CCCn1ccnc1[N+](=O)[O-])NCCn1cncc1[N+](=O)[O-]	> 100 µM	–
Cn1cc(C2=C(c3ccc4ccccc4c3)C(=O)NC2=O)c2ccccc21	> 25 µM	> 25 µM
O=C(OCc1ccc2cccc(O)c2n1)N1CCN(C(=O)c2cc3cc(F)ccc3[nH]2)CC1	2.67 µM	1.28 µM
C[As](C)SC1OC(CO)C(O)C1O (stereo not given)	0.799 µM	0.189 µM
CCCCCCCCCC/C=C/CC(=O)SCCNC(=O)CCNC(=O)[C@@H](O)C(C)(C)COP(=O)(O)OP(=O)(O)OCC1OC(n2cnc3c(N)ncnc32)C(O)C1OP(=O)(O)O (stereo not given in full)	> 10 µM	–
Cn1c(=O)c2c(nc(Nc3cc(=O)[nH]c(=O)[nH]3)n2Cc2ccccc2)n(C)c1=O	> 100 µM	> 100 µM
COc1ccc2c(c1)CCC1C2CC[C@@]2(C)C1CC1=CC(COC(C)=O)C3C(=O)c4ccccc4C(=O)C3C12 (stereo not given in full)	> 100 µM	> 100 µM
C=C(F)C(=O)N1CCN(c2nc(OC[C@@H]3CCCN3C)nc3c2CCN(c2cccc4cccc(Cl)c24)C3)C[C@@H]1CC#N	2.87 µM	1.04 µM
Cc1c2cccnc2c(C)c2c1c1cc(CO)ccc1n2C	11.9 µM	3.09 µM
CC/C(=C(/c1ccc(OCCN(C)C)cc1)c1ccc(OC(=O)CCCCC(=O)c2c(C)[nH]c(/C=C3\N=C(c4ccc[nH]4)C=C3OC)c2C)cc1)c1ccccc1	21.1 µM	7.73 µM
CC[C@]12C=CCN3CC[C@@]4(c5ccc(OC)cc5N(C)[C@H]4[C@@](O)(C(=O)OC)[C@@H]1OC(=O)CCC[P+](c1ccccc1)(c1ccccc1)c1ccccc1)[C@@H]32	6.47 µM and 11.8 µM	1.09 µM and 0.768 µM
CC(=O)OC1Oc2ccccc2-c2oc(=O)c(-c3cc(=O)oc4cc(O)ccc34)cc21 (stereo not given)	50.5 µM	19.4 µM
Ic1ccc(Nc2nc3nonc3nc2Nc2ccc(I)cc2)cc1	> 100 µM	0.365 µM
CC(C)(C)C(=O)OCOP(=O)(OCOC(=O)C(C)(C)C)C1CCCN(O)C1=O (stereo not given)	> 100 µM	0.831 µM
CCCCc1c(OC)cc(O)c2c1C(=O)c1[nH]c(C(=O)O)c(O)c(=O)c1C2=O	> 100 µM	–
COC(=O)c1cc2c(cc1O)[C@@H](NC(C)=O)CCc1cc(OC)c(OC)c(OC)c1-2	> 100 µM	–
C/C(=C\CCc1ccoc1)CC/C=C(\C)CCCC1=CC(=O)OC1	> 100 µM	24.8 µM

system: SK-MEL-5 melanoma; test: NCI-60 cell line screen, 48 h

SMILES	TGI [µM]	GI50 [µM]
O=C(CCCn1ccnc1[N+](=O)[O-])NCCn1cncc1[N+](=O)[O-]	> 100	–
Cn1cc(C2=C(c3ccc4ccccc4c3)C(=O)NC2=O)c2ccccc21	> 25	> 25
O=C(OCc1ccc2cccc(O)c2n1)N1CCN(C(=O)c2cc3cc(F)ccc3[nH]2)CC1	3.07	1.69
